Earlier results, collected in article PMC12435690, “KYLO-0603, a novel liver-targeting, thyroid hormone receptor-β agonist for the inhibition of MASH progression” (PLOS One, 2025).
Where “and” joins values, the source holds several entries; their conditions need not be identical. Identical values can stand only once.

System: THR-β over THR-α
Set-up: method as in PMID 38771485, PMID 33306682, PMID 9653548, PMID 32098589
Settings: in vitro THR competition assays ref [28],[47],[48],[49]; cited from earlier work

In the case of `CC(C)c1cc(Oc2c(Cl)cc(-n3nc(C#N)c(=O)[nH]c3=O)cc2Cl)n[nH]c1=O` [Resmetirom], the “selectivity ratio for THR-β over THR-α” value is listed as 12 and 17.
